We go through five compounds from DBAASP.

What all share (assay): ≥ marks a high value that may be exact or a test limit, other limits are often not marked, values filed in µg/mL are converted to µM
The subject of assay [1] is Aspergillus flavus.
Assay [2] deals with Bacillus megaterium.
Assay [3] concerns Candida albicans ATCC 90028.
In assay [4] the test system is Candida parapsilosis ATCC 22019.
Assay [5] has as its system Enterococcus faecalis ATCC 29212.
The test system of assay [6] is Escherichia coli ATCC 25922.
The subject of assay [7] is Escherichia coli ATCC 35218.
For assay [8], the system named is Pseudomonas aeruginosa ATCC 27853.
Assay [9] has as its system Saccharomyces cerevisiae.
The subject of assay [10] is Staphylococcus aureus ATCC 25923.
Assay [11] relates to Bacillus licheniformis X39.
Assay [12] has as its system Enterococcus faecalis 981.
In assay [13] the test system is Psychrobacter faecalis X29.
Assay [14] relates to Rhodococcus rhodochrous X15.
Assay [15] has as its system Serratia rubidaea X01.
Assay [16] deals with Staphylococcus carnosus KHS.
The subject of assay [17] is Candida albicans ATCC 2002.
In assay [18] the test system is Enterobacter cloacae ATCC 13047.
Assay [19] concerns Escherichia coli 117.
Assay [20] concerns Escherichia coli 218.
Assay [21] concerns Escherichia coli 37.
The test system of assay [22] is Escherichia coli K-12.
Assay [23] concerns Klebsiella pneumoniae ATCC 700603.
For assay [24], the system named is Klebsiella pneumoniae.
For assay [25], the system named is Pseudomonas aeruginosa CMCCB 1010.
The subject of assay [26] is Pseudomonas aeruginosa.
For assay [27], the system named is Shigella dysenteriae.
Assay [28] concerns Staphylococcus aureus 37.
Assay [29] deals with Staphylococcus aureus USA 300.
The subject of assay [30] is Bacillus subtilis C971.
The test system of assay [31] is Corynebacterium xerosis C875.
The subject of assay [32] is Enterococcus faecalis C625.
Assay [33] deals with Escherichia coli DC2.
Assay [34] has as its system Escherichia coli UB1005.
The test system of assay [35] is Pseudomonas aeruginosa H187.
Assay [36] relates to Pseudomonas aeruginosa H188.
In assay [37] the test system is Salmonella typhimurium C587.
For assay [38], the system named is Salmonella typhimurium C610.
The test system of assay [39] is Staphylococcus aureus SAP 0017.
The subject of assay [40] is Staphylococcus epidermidis ATCC 12228.
In assay [41] the test system is Staphylococcus epidermidis C621.
Assay [42] has as its system Streptococcus pneumoniae ATCC 49619.
The test system of assay [43] is Helicobacter pylori NCTC 11637.
In assay [44] the test system is Staphylococcus aureus ATCC 2592.

In brackets after ≈: the same amount, converted by molar mass. Several values for one entry are separate records, joined by “and”; a condition that tells them apart may be missing. Equal entries are not always repeated.

The MIC is the smallest concentration in the dilution series that meets the test's criterion for growth inhibition. A high value points to a need for much substance. Regarding `CC[C@H](C)[C@H](NC(=O)[C@H](Cc1cnc[nH]1)NC(=O)[C@H](CO)NC(=O)[C@H](CC(C)C)NC(=O)[C@@H](N)Cc1ccccc1)C(=O)N[C@@H](C)C(=O)NCC(=O)N[C@@H](Cc1ccccc1)C(=O)N[C@@H](CC(C)C)C(=O)N[C@@H](CO)C(=O)N[C@@H](CC(N)=O)C(=O)N[C@@H](CC(C)C)C(=O)N[C@@H](Cc1ccccc1)C(=O)O` [FLSHIAGFLSNLF], the MIC is 10 µM (≈ 14.7 µg/mL) in assay [1]; 4 µM (≈ 5.86 µg/mL) in assay [2]; 20 µM (≈ 29.3 µg/mL) in assay [3]; 20 µM (≈ 29.3 µg/mL) in assay [4]; > 80 µM in [5]; 161 µM (≈ 236 µg/mL) in assay [6]. Also, the MIC in [7] was ≥ 80 µM; in assay [8] it was > 161 µM; in [9], 10 µM (≈ 14.7 µg/mL); in assay [10] it was 10 µM (≈ 14.7 µg/mL).
For `CC[C@H](C)[C@H](NC(=O)CNC(=O)[C@H](Cc1ccccc1)NC(=O)[C@H](CCC(=O)O)NC(=O)[C@H](CCCCN)NC(=O)[C@H](CC(C)C)NC(=O)[C@H](CCCCN)NC(=O)[C@H](CC(=O)O)NC(=O)[C@H](CC(C)C)NC(=O)[C@@H](NC(=O)CN)[C@@H](C)CC)C(=O)N[C@@H](CO)C(=O)N[C@@H](C)C(=O)N[C@@H](C)C(=O)N[C@@H](CCCN=C(N)N)C(=O)NCC(=O)N[C@H](C(=O)N[C@@H](C)C(=O)N[C@@H](CCC(N)=O)C(=O)N[C@@H](CO)C(=O)N[C@@H](CC(C)C)C(=O)N[C@@H](CC(C)C)C(=O)N[C@@H](CC(N)=O)C(=O)N[C@H](C(=O)N[C@@H](C)C(=O)N[C@@H](CO)C(=O)N[C@H]1CSSC[C@@H](C(=O)O)NC(=O)[C@H]([C@@H](C)O)NC(=O)[C@H](CCCCN)NC(=O)[C@H](C)NC(=O)[C@H](CC(C)C)NC(=O)[C@H](CCCCN)NC1=O)[C@@H](C)O)C(C)C` [GILDKLKEFGISAARGVAQSLLNTASCKLAKTC], the MIC is ≥ 75 µM in assay [11]; ≥ 37.5 µM in assay [12]; 150 µM (≈ 511 µg/mL) in assay [6]; 2.3 µM (≈ 7.83 µg/mL) in assay [13]; 2.3 µM (≈ 7.83 µg/mL) in assay [14]; 2.3 µM (≈ 7.83 µg/mL) in assay [15]. Moreover, the MIC in [10] is 37.5 µM (≈ 128 µg/mL); in assay [16], ≥ 37.5 µM.
As to `CC[C@H](C)[C@H](N)C(=O)N[C@@H](CC(N)=O)C(=O)N[C@@H](CC(C)C)C(=O)N[C@@H](CCCCN)C(=O)N[C@@H](C)C(=O)N[C@H](C(=O)N[C@@H](C)C(=O)N[C@@H](C)C(=O)N[C@@H](CC(C)C)C(=O)N[C@@H](C)C(=O)N[C@@H](CCCCN)C(=O)N[C@@H](CCCCN)C(=O)N[C@@H](CC(C)C)C(=O)N[C@@H](CC(C)C)C(=O)O)[C@@H](C)CC` [INLKAIAALAKKLL], the MIC is 6.76 µM (≈ 10 µg/mL) in assay [17]; 6.76 µM (≈ 10 µg/mL) in [3]; 27 µM (≈ 40 µg/mL) in [4]; 13.5 µM (≈ 20 µg/mL) in assay [18]; 1.69 µM (≈ 2.5 µg/mL) in [5]; 27 µM (≈ 40 µg/mL) in assay [19]. For the same compound, the MIC in assay [20] came to 13.5 µM (≈ 20 µg/mL); in assay [21], 6.76 µM (≈ 10 µg/mL); in [6], 13.5 µM (≈ 20 µg/mL); in [22], 25 µM (≈ 37 µg/mL); in [23], 6.76 µM (≈ 10 µg/mL); in assay [24], 6.76 µM (≈ 10 µg/mL). Besides, the MIC in assay [8] was determined as 3.38 µM (≈ 5 µg/mL); in [25], 27 µM (≈ 40 µg/mL); in [26], 3.38 µM (≈ 5 µg/mL); in [27], 3.38 µM (≈ 5 µg/mL); in assay [28], 6.76 µM (≈ 10 µg/mL); in assay [10], 3.38 µM (≈ 5 µg/mL). The MIC in assay [29] is ≥ 100 µM.
Consider `CC[C@H](C)[C@H](NC(=O)[C@H](C)NC(=O)[C@H](CCCCN)NC(=O)[C@H](CC(C)C)NC(=O)[C@H](C)NC(=O)[C@@H](NC(=O)[C@H](Cc1cnc[nH]1)NC(=O)[C@H](CC(C)C)NC(=O)[C@@H](NC(=O)[C@@H](NC(=O)[C@H](CCCCN)NC(=O)[C@H](C)NC(=O)[C@H](C)NC(=O)[C@H](CO)NC(=O)[C@H](CCCCN)NC(=O)[C@H](Cc1ccccc1)NC(=O)[C@@H](NC(=O)[C@H](CCCCN)NC(=O)[C@H](CC(C)C)NC(=O)[C@H](Cc1ccccc1)NC(=O)[C@H](CO)NC(=O)[C@H](CCCCN)NC(=O)[C@H](Cc1c[nH]c2ccccc12)NC(=O)[C@H](CCCCN)NC(C)=O)[C@@H](C)O)[C@@H](C)O)C(C)C)[C@@H](C)O)C(=O)N[C@@H](CO)C(=O)N[C@@H](CO)C(N)=O` [KWKSFLKTFKSAAKTVLHTALKAISS], for which the MIC in [30] was 0.692 µM (≈ 2.03 µg/mL); in assay [31], 0.692 µM (≈ 2.03 µg/mL); in [32], 5.53 µM (≈ 16.2 µg/mL); in assay [6], 2.83 µM (≈ 8.3 µg/mL); in assay [33] it was 0.864 µM (≈ 2.54 µg/mL); in [34], 0.864 µM (≈ 2.54 µg/mL). The MIC in [23] was 4 µM (≈ 11.7 µg/mL); in [8], 8 µM (≈ 23.5 µg/mL); in assay [35] it was 1.73 µM (≈ 5.07 µg/mL); in assay [36], 2.21 µM (≈ 6.49 µg/mL); in assay [37], 2.21 µM (≈ 6.49 µg/mL); in assay [38] it was 0.864 µM (≈ 2.54 µg/mL). Besides, the minimum inhibitory concentration (MIC) in assay [10] was 2.77 µM and 5.66 µM; in assay [39], 1.73 µM (≈ 5.07 µg/mL); in assay [40] it was 2.83 µM (≈ 8.3 µg/mL); in assay [41] it was 1.11 µM (≈ 3.25 µg/mL); in assay [42], 2 µM (≈ 5.87 µg/mL).
Regarding `CC[C@H](C)[C@H](NC(=O)[C@H](CCC(N)=O)NC(=O)[C@H](CCCCN)NC(=O)[C@H](Cc1c[nH]c2ccccc12)NC(=O)[C@H](CO)NC(=O)[C@H](CCC(N)=O)NC(=O)[C@@H]1CCCN1C(=O)[C@H](CC(C)C)NC(=O)[C@H](CCCCN)NC(=O)[C@H](C)NC(=O)[C@H](CCC(=O)O)NC(=O)[C@H](CCCCN)NC(=O)[C@@H](NC(=O)[C@H](CCSC)NC(=O)[C@@H](NC(=O)[C@@H](NC(=O)[C@@H](NC(=O)[C@@H](N)CO)[C@@H](C)CC)[C@@H](C)CC)[C@@H](C)O)[C@@H](C)O)C(=O)N[C@@H](C)C(=O)N[C@H]1CSSC[C@@H](C(=O)O)NC(=O)[C@H]([C@@H](C)O)NC(=O)[C@H](CC(N)=O)NC(=O)[C@H](Cc2ccc(O)cc2)NC(=O)[C@H](CC(C)C)NC(=O)[C@H](CCCN=C(N)N)NC1=O` [SIITMTKEAKLPQSWKQIACRLYNTC], the MIC in [17] came to 9.91 µM (≈ 30 µg/mL); in [6] it was 19.8 µM (≈ 60 µg/mL); in assay [43], 9.91 µM (≈ 30 µg/mL); in assay [27], 19.8 µM (≈ 60 µg/mL); in assay [44], 4.95 µM (≈ 15 µg/mL).
